Data from PMC12004451, “Characterization of the Two-Domain Peptide Binding Mechanism of the Human CGRP Receptor for CGRP and the Ultrahigh Affinity ssCGRP Variant” (Biochemistry, 2025).
“And” between values parts separate entries of the source, which are not always exact repeats. Equal entries are not always repeated. Where two headings read alike, the source gives them in different places. Bridge positions count the residues as written; N and C are the ends. Ends that are not written are not given here. Peptide text beside a SMILES is read from it. * marks the point of attachment. 5TAMRA = CN(C)c1ccc2c(c1)Oc1cc(N(C)C)ccc1C21OC(=O)c2cc(C(=O)*)ccc21

Experiments:
[1] = molecular target: T1, CGRP receptor (Nluc-CLR:RAMP1) (Homo sapiens, UniProt O60894+Q16602); experiment: nanoBRET association kinetics of TAMRA probes; assay type: binding
T1 construct: N-terminally Nanoluciferase (NLuc)-tagged CLR (pcDNA3.1(+)sec/NanoLuc-GSGIS-CLR.23-461); Wild-type CLR and RAMP expression plasmids were obtained from cDNA.org; sec (vector secretion signal before NanoLuc) (N); expressed in transfected cells; host or cells: COS-7 cells, membrane preparation
Method: After 2 days, the cells were washed with PBS and harvested with ice-cold PBS + 5 mM EDTA. The cells were pelleted in a centrifuge at 1000g for 5 min at 4 °C and resuspended in a hypotonic buffer (25 mM NaHEPES pH 7.5, 2 mM MgCl2, 1 mM EDTA, and 1× EDTA-free PIERCE protease inhibitor tablet). After resuspension, cells were homogenized with an Ultra Turrax for 30 s at 10,000 rpm followed by a 10 min incubation. Cell debris was pelleted at 800g for 10 min and the supernatant was transferred to ultracentrifuge tubes and centrifuged at 100,000g for 1 h. Membranes were resuspended in a wash buffer (25 mM NaHEPES pH 7.5, 250 mM NaCl, 2 mM MgCl2, 1 mM EDTA, and 1× protease inhibitor tablet). The homogenization and ultracentrifugation were repeated once more and the membranes were resuspended in storage buffer (25 mM NaHEPES pH 7.5, 25 mM NaCl, 2 mM MgCl2, 10% v/v glycerol, and 1× protease inhibitor tablet). The resuspended membranes were homogenized, aliquoted, and flash frozen in liquid nitrogen for storage at -80 °C. Total protein was quantitated using the DC protein assay (BioRad) per the manufacturer's instructions. The concentration of NLuc-CLR was determined by comparing the membrane prep luminescence to a standard curve using purified NLuc enzyme (Promega; […]). […] Costar 3912). […] The observed association rates (kobs) were plotted against probe concentration and the data was analyzed by linear regression. The kon and koff were obtained as the slope and y-intercept, respectively.

[2] = molecular target: T1, CGRP receptor (Nluc-CLR:RAMP1); experiment: nanoBRET equilibrium competition binding, Nluc-CLR:RAMP1 membranes; conditions: room temperature, Cheng-Prusoff, mean ± SEM, n=3
Method: After 2 days, the cells were washed with PBS and harvested with ice-cold PBS + 5 mM EDTA. The cells were pelleted in a centrifuge at 1000g for 5 min at 4 °C and resuspended in a hypotonic buffer (25 mM NaHEPES pH 7.5, 2 mM MgCl2, 1 mM EDTA, and 1× EDTA-free PIERCE protease inhibitor tablet). After resuspension, cells were homogenized with an Ultra Turrax for 30 s at 10,000 rpm followed by a 10 min incubation. Cell debris was pelleted at 800g for 10 min and the supernatant was transferred to ultracentrifuge tubes and centrifuged at 100,000g for 1 h. Membranes were resuspended in a wash buffer (25 mM NaHEPES pH 7.5, 250 mM NaCl, 2 mM MgCl2, 1 mM EDTA, and 1× protease inhibitor tablet). The homogenization and ultracentrifugation were repeated once more and the membranes were resuspended in storage buffer (25 mM NaHEPES pH 7.5, 25 mM NaCl, 2 mM MgCl2, 10% v/v glycerol, and 1× protease inhibitor tablet). The resuspended membranes were homogenized, aliquoted, and flash frozen in liquid nitrogen for storage at -80 °C. Total protein was quantitated using the DC protein assay (BioRad) per the manufacturer's instructions. The concentration of NLuc-CLR was determined by comparing the membrane prep luminescence to a standard curve using purified NLuc enzyme (Promega; […]). […] The Cheng-Prusoff correction[30] was used to calculate the Ki from the IC50.

[3] = molecular target: T1, CGRP receptor (Nluc-CLR:RAMP1); experiment: nanoBRET competition association kinetics (Motulsky-Mahan); assay type: binding; conditions: for Kd: mean ± SEM, n=3, read-out: Kd calc (koff/kon)
Method: Membrane preparation was performed as previously described.[29] COS-7 cells in ten […] plastic culture dishes (Corning; 430599) were transiently transfected with 2 μg NLuc-CLR, 2 μg RAMP1, and 46 μg empty pcDNA3.1(+) expression plasmids/dish with 75 μg Polyethylenimine (PEI)/dish. After 2 days, the cells were washed with PBS and harvested with ice-cold PBS + 5 mM EDTA. The cells were pelleted in a centrifuge at 1000g for 5 min at 4 °C and resuspended in a hypotonic buffer (25 mM NaHEPES pH 7.5, 2 mM MgCl2, 1 mM EDTA, and 1× EDTA-free PIERCE protease inhibitor tablet). After resuspension, cells were homogenized with an Ultra Turrax for 30 s at 10,000 rpm followed by a 10 min incubation. Cell debris was pelleted at 800g for 10 min and the supernatant was transferred to ultracentrifuge tubes and centrifuged at 100,000g for 1 h. Membranes were resuspended in a wash buffer (25 mM NaHEPES pH 7.5, 250 mM NaCl, 2 mM MgCl2, 1 mM EDTA, and 1× protease inhibitor tablet). The homogenization and ultracentrifugation were repeated once more and the membranes were resuspended in storage buffer (25 mM NaHEPES pH 7.5, 25 mM NaCl, 2 mM MgCl2, 10% v/v glycerol, and 1× protease inhibitor tablet). The resuspended membranes were homogenized, aliquoted, and flash frozen in liquid nitrogen for storage at −80 °C. Total protein was quantitated using the DC protein assay (BioRad) per the manufacturer’s instructions. The concentration of NLuc-CLR was determined by comparing the membrane prep luminescence to a standard curve using purified NLuc enzyme (Promega; G9711). The total protein concentration was 0.91 mg/mL and the NLuc-CLR was 7.35 nM.
Emission at 460 and 610 nm were measured every 16 s for 45 min with the PolarSTAR Omega plate reader mixing 300 rpm for 1 s before each cycle. The curves were fit using GraphPad Prism to the Motulsky-Mahan competition kinetics equation[31] modified to account for the signal decay component as previously described[32] to determine the kon and koff of the competitor. The Kd (koff/kon), half-life (ln 2/koff), and residence time (1/koff) values were calculated.

[4] = competition against 10 nM CGRP(27-37)*-TAMRA probe, 2 h, read-out: Ki

Row | kon ([1]; association kinetics, 25 °C, kobs vs probe concentration, slope of linear regression, fit of first 10 min (full 1 h 15 min for ssCGRP(8-37)-TAMRA), mean ± SEM, n=3) | koff ([1]; association kinetics, 25 °C, y-intercept of kobs vs probe concentration, mean ± SEM, n=3) | half-life ([1]; from association kinetics) | Ki ([2]; G protein coupled state (30 μM sumo-miniGs), 3 nM AM2/IMD(8-47)-TAMRA probe, 8 h, read-out: Ki + mGs) | Ki ([2]; G protein uncoupled state (50 μM GTPγS), 30 nM AM2/IMD(8-47)-TAMRA probe, 8 h, read-out: Ki + GTPγS) | Compound | koff [3] | kon [3] | Residence time (1/koff) ([3]; from competition kinetics) | t1/2 (ln 2/koff) ([3]; from competition kinetics) | Kd ([3]; from competition kinetics) | Ki [2, 4] | residence time ([3]; from competition kinetics)
1 | 2.75e+06 M⁻¹ s⁻¹ | 0.0635 s⁻¹ | 11 s |  |  | CC(C)[C@H](NC(=O)[C@H](CC(=O)O)NC(=O)[C@@H](NC(=O)[C@@H]1CCCN1C(=O)[C@@H](NC(=O)[C@@H](N)Cc1ccccc1)C(C)C)[C@@H](C)O)C(=O)NCC(=O)N1CCC[C@H]1C(=O)N[C@@H](CCCCNC(=O)c1ccc2c(c1)C(=O)OC21c2ccc(N(C)C)cc2Oc2cc(N(C)C)ccc21)C(=O)N[C@@H](CO)C(=O)N[C@@H](Cc1ccc(O)cc1)C(N)=O [CGRP(27-37)*-TAMRA, αCGRP(27-37) N31D/S34P/K35-TAMRA/A36S/F37Y] (H-FVPTDVGPK(5TAMRA)SY-NH2; N-terminus assumed) |  |  |  |  |  |  | 
2 |  |  |  | 0.19 ± 0.01 nM | 0.248 ± 0.008 nM | CC(C)C[C@H](NC(=O)CNC(=O)[C@H](C)NC(=O)[C@H](CC(C)C)NC(=O)[C@H](CCCNC(=N)N)NC(=O)[C@H](Cc1c[nH]cn1)NC(=O)[C@@H](NC(=O)[C@@H](NC(=O)[C@@H]1CSSC[C@H](NC(=O)[C@H](C)N)C(=O)N[C@@H](CC(=O)O)C(=O)N[C@@H]([C@@H](C)O)C(=O)N[C@@H](C)C(=O)N[C@@H]([C@@H](C)O)C(=O)N1)C(C)C)[C@@H](C)O)C(=O)N[C@@H](CC(C)C)C(=O)N[C@@H](CO)C(=O)N[C@@H](CCCNC(=N)N)C(=O)N[C@@H](CO)C(=O)NCC(=O)NCC(=O)N[C@H](C(=O)N[C@H](C(=O)N[C@@H](CCCCN)C(=O)N[C@@H](CC(N)=O)C(=O)N[C@@H](CC(N)=O)C(=O)N[C@@H](Cc1ccccc1)C(=O)N[C@H](C(=O)N1CCC[C@H]1C(=O)N[C@H](C(=O)N[C@@H](CC(=O)O)C(=O)N[C@H](C(=O)NCC(=O)N1CCC[C@H]1C(=O)N[C@@H](Cc1c[nH]c2ccccc12)C(=O)N[C@@H](CO)C(=O)N[C@@H](Cc1ccccc1)C(N)=O)C(C)C)[C@@H](C)O)C(C)C)C(C)C)C(C)C [ssCGRP(1-37)] (H-ACDTATCVTHRLAGLLSRSGGVVKNNFVPTDVGPWSF-NH2; disulfide 2-7) |  |  |  |  |  |  | 
3 |  |  |  |  |  | FVPTDVGPWSF-NH2 [ssCGRP(27-37)] | 0.00222 s⁻¹ | 3.22e+06 M⁻¹ s⁻¹ | 7.57 ± 0.27 min and ~8 min | 5.24 ± 0.18 min | 0.73 nM | 0.527 ± 0.039 nM | 
4 |  |  |  |  |  | FVPTNVGSKAF-NH2 [CGRP(27-37), reference compound] | 0.203 s⁻¹ | 195000 M⁻¹ s⁻¹ | 0.087 ± 0.015 min | 0.06 ± 0.01 min | 1040 nM | 1050 nM | ~0.0833 min
